One may read the IC50 as the midpoint of a concentration-inhibition curve. Lower therefore signals greater potency in that assay.

In the experiment the target is CD73 (Homo sapiens (Human), UniProt P21589). Nature of the experiment: Biochemical Assay (CD73 inhibition, AMP hydrolysis, Malachite Green readout). To be noted: CD73 0.3208 nM, AMP 15 μM, Tris-HCl pH 7.4, Malachite Green absorbance.
CD73, sequence (P21589 27-574): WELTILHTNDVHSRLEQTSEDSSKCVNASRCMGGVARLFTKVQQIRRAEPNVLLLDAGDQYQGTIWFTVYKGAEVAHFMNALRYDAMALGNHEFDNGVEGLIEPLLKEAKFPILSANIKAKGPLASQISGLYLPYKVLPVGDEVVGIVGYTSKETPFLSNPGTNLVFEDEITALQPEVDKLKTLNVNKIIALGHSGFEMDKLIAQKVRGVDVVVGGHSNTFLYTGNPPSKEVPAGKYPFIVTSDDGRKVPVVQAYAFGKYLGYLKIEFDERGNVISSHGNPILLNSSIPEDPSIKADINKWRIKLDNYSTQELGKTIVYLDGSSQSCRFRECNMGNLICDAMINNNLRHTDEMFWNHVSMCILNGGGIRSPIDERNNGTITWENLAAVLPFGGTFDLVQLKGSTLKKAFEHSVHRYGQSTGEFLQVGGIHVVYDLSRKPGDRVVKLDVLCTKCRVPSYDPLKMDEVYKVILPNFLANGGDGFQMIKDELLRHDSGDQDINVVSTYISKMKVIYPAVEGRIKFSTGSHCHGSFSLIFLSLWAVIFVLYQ
Molecule `O=P(O)(O)COC[C@H]1O[C@@H](n2ncc3c(NCC4CC(F)(F)C4)nc(Cl)nc32)[C@H](O)[C@@H]1O` [Example 86] had an IC50 of no more than 500 nM.
For `CN(Cc1ccccc1)c1nc(Cl)nc2c1cnn2[C@H]1O[C@H](COCCP(=O)(O)O)[C@@H](O)[C@H]1O` [Example 6, (2-(((2R,3S,4R,5S)-5-(4-(Benzyl(methyl)amino)-6-chloro-1H-pyrazolo[3,4-d]pyrimidin-1-yl)-3,4-dihydroxytetrahydrofuran-2-yl)methoxy)ethyl)phosphonic acid], the IC50 is greater than 1000 nM.
The same measure for `CN(Cc1ccccc1Cl)c1nc(Cl)nc2c1cnn2[C@@H]1O[C@H](COCP(=O)(O)O)[C@@H](O)[C@H]1O` [Example 64, ((((2R,3S,4R,5R)-5-(6-chloro-4-((2-chlorobenzyl)(methyl)amino)-1H-pyrazolo[3,4-d]pyrimidin-1-yl)-3,4-dihydroxytetrahydrofuran-2-yl)methoxy)methyl)phosphonic acid]: 500 to 1000 nM; for `O=P(O)(O)CS(=O)(=O)C[C@H]1O[C@@H](n2ncc3c(NCC4CCC4)nc(Cl)nc32)[C@H](O)[C@@H]1O` [Example 111, (((((2S,3S,4R,5R)-5-(6-chloro-4-((cyclobutylmethyl)amino)-1H-pyrazolo[3,4-d]pyrimidin-1-yl)-3,4-dihydroxytetrahydrofuran-2-yl)methyl)sulfonyl)methyl)phosphonic acid]: no more than 500 nM.
In turn, `O=P(O)(O)COC[C@H]1O[C@@H](n2ccc3c(NCC4CC4)nc(Cl)nc32)[C@H](O)[C@@H]1O` [Example 15, ((((2R,3S,4R,5R)-5-(2-Chloro-4-((cyclopropylmethyl)amino)-7H-pyrrolo[2,3-d]pyrimidin-7-yl)-3,4-dihydroxytetrahydrofuran-2-yl)methoxy)methyl)phosphonic acid] had an IC50 of no more than 500 nM.
The molecule `O=P(O)(O)CS(=O)(=O)C[C@H]1O[C@@H](n2nnc3c(NC4CCC4)nc(Cl)nc32)[C@H](O)[C@@H]1O` [Example 110, (((((2S,3S,4R,5R)-5-(5-chloro-7-(cyclobutylamino)-3H-[1,2,3]triazolo[4,5-d]pyrimidin-3-yl)-3,4-dihydroxytetrahydrofuran-2-yl)methyl)sulfonyl)methyl)phosphonic acid] had an IC50 of no more than 500 nM.
As for `O=P(O)(O)COC[C@H]1O[C@@H](n2ncc3c(NCC4CCC4)nc(Cl)nc32)[C@H](O)[C@@H]1O` [Example 68, ((((2R,3S,4R,5R)-5-(6-chloro-4-((cyclobutylmethyl)amino)-1H-pyrazolo[3,4-d]pyrimidin-1-yl)-3,4-dihydroxytetrahydrofuran-2-yl)methoxy)methyl)phosphonic acid], the figure is no more than 500 nM.
The molecule `O=P(O)(O)COC[C@H]1O[C@@H](n2ncc3c(NCCC4CC4)nc(Cl)nc32)[C@H](O)[C@@H]1O` [Example 94, ((((2R,3S,4R,5R)-5-(6-chloro-4-((2-cyclopropylethyl)amino)-1H-pyrazolo[3,4-d]pyrimidin-1-yl)-3,4-dihydroxytetrahydrofuran-2-yl)methoxy)methyl)phosphonic acid] gave an IC50 of no more than 500 nM.
The same measure for `Nc1nc(Cl)nc2c1cnn2[C@@H]1O[C@H](COCP(=O)(O)O)[C@@H](O)[C@H]1O` [Example 57, ((((2R,3S,4R,5R)-5-(4-amino-6-chloro-1H-pyrazolo[3,4-d]pyrimidin-1-yl)-3,4-dihydroxytetrahydrofuran-2-yl)methoxy)methyl)phosphonic acid]: 500 to 1000 nM.
As for `CN(C[C@H]1O[C@@H](n2nnc3c(NC4CCCC4)nc(Cl)nc32)[C@H](O)[C@@H]1O)C(=O)CP(=O)(O)O` [Example 115, (2-((((2R,3S,4R,5R)-5-(5-chloro-7-(cyclopentylamino)-3H-[1,2,3]triazolo[4,5-d]pyrimidin-3-yl)-3,4-dihydroxytetrahydrofuran-2-yl)methyl)(methyl)amino)-2-oxoethyl)phosphonic acid], the figure is 500 to 1000 nM; as for `O=P(O)(O)COC[C@H]1O[C@@H](n2ncc3c(NCc4ccccc4Cl)nc(Cl)nc32)[C@H](O)[C@@H]1O` [Example 10, ((((2R,3S,4R,5R)-5-(6-chloro-4-((2-chlorobenzyl)amino)-1H-pyrazolo[3,4-d]pyrimidin-1-yl)-3,4-dihydroxytetrahydrofuran-2-yl)methoxy)methyl)phosphonic acid], no more than 500 nM.
The same measure for `O=P(O)(O)COC[C@H]1O[C@@H](n2ncc3c(NCc4cccc5ccccc45)nc(Cl)nc32)[C@H](O)[C@@H]1O` [Example 49, ((((2R,3S,4R,5R)-5-(6-chloro-4-((naphthalen-1-ylmethyl)amino)-1H-pyrazolo[3,4-d]pyrimidin-1-yl)-3,4-dihydroxytetrahydrofuran-2-yl)methoxy)methyl)phosphonic acid]: no more than 500 nM; for `Cc1nc(NCc2cccc(Cl)c2)c2cnn([C@@H]3O[C@H](COCP(=O)(O)O)[C@@H](O)[C@H]3O)c2n1` [Example 44, ((((2R,3S,4R,5R)-5-(4-((3-chlorobenzyl)amino)-6-methyl-1H-pyrazolo[3,4-d]pyrimidin-1-yl)-3,4-dihydroxytetrahydrofuran-2-yl)methoxy)methyl)phosphonic acid]: greater than 1000 nM; for `O=P(O)(O)COC[C@H]1O[C@@H](n2ncc3c(NCc4cccc(Cl)c4)nc(N4CCCC4)nc32)[C@H](O)[C@@H]1O` [Example 55, ((((2R,3S,4R,5R)-5-(4-((3-chlorobenzyl)amino)-6-(pyrrolidin-1-yl)-1H-pyrazolo[3,4-d]pyrimidin-1-yl)-3,4-dihydroxytetrahydrofuran-2-yl)methoxy)methyl)phosphonic acid]: greater than 1000 nM.
For `C[C@@H]1CCC[C@@H]1Nc1nc(Cl)nc2c1cnn2[C@@H]1O[C@H](COCP(=O)(O)O)[C@@H](O)[C@H]1O` [Example 104, ((((2R,3S,4R,5R)-5-(6-chloro-4-(((1S,2R)-2-methylcyclopentyl)amino)-1H-pyrazolo[3,4-d]pyrimidin-1-yl)-3,4-dihydroxytetrahydrofuran-2-yl)methoxy)methyl)phosphonic acid], the IC50 was no more than 500 nM.
Turning to “((((2R,3S,4R,5R)-5-(5-chloro-7-((3- chlorobenzyl)pamino)-3H[1,2,3]triazolo[4,5- d]pyrimidin-3-yl)-3,4- dihydroxytetrahydrofuran-2- yl)methoxy)methyl)phosphonic acid [Example 24]”, the IC50 is no more than 500 nM.
The same measure for `O=P(O)(O)CS(=O)(=O)C[C@H]1O[C@@H](n2nnc3c(NCc4ccc(F)cc4)nc(Cl)nc32)[C@H](O)[C@@H]1O` [Example 119]: no more than 500 nM; for `O=P(O)(O)COC[C@H]1O[C@@H](n2ncc3c(NCc4cccc(F)c4)nc(Cl)nc32)[C@H](O)[C@@H]1O` [Example 29, ((((2R,3S,4R,5R)-5-(6-chloro-4-((3-fluorobenzyl)amino)-1H-pyrazolo[3,4-d]pyrimidin-1-yl)-3,4-dihydroxytetrahydrofuran-2-yl)methoxy)methyl)phosphonic acid]: no more than 500 nM.
The same measure for `O=P(O)(O)COC[C@H]1O[C@@H](n2nnc3c(NCc4ccccc4Cl)nc(Cl)nc32)[C@H](O)[C@@H]1O` [Example 30, ((((2R,3S,4R,5R)-5-(5-chloro-7-((2-chlorobenzyl)pamino)-3H-[1,2,3]triazolo[4,5-d]pyrimidin-3-yl)-3,4-dihydroxytetrahydrofuran-2-yl)methoxy)methyl)phosphonic acid]: no more than 500 nM.

Values taken from patent US11377469B2, “CD73 inhibitors” (ORIC Pharmaceuticals, Inc., priority 2017, dated 2022).
